We go through three compounds from patent publication US20210223266A1, “METHODOLOGIES AND METHODS FOR MEASURING HIGHER MOLECULAR WEIGHT TRANSTHYRETIN OR EQUIVALENTS AS A CLINICAL BIOMARKER” (TTR Therapeutics, priority 2019, published 2021).

One series concerns wtATTR-CM patients. As to conditions: p<0.001; cited from earlier work.
The target in the next series is T1, TTR tetramer (Homo sapiens, UniProt P02766).
T1 construct: TTR tetramer levels were measured by immunoturbidimetric (IT) assays by Abbot Laboratories; from tissue; host or cells: blood samples of human wtATTR-CM patients (literature study, Circ Heart Fail 2018)
As to conditions: wtATTR-CM, off-label diflunisal; untreated 22 mg/dL (12-29); cited from earlier work.

In series [1] the test system is TTR-assisted beta-amyloid (Aβ) transport. As to conditions: cited from earlier work.
For series [2], the system named is TTR. The series is described as follows: TTR levels at tafamidis 20 vs 80 mg, Phase 3 ATTR-ACT trial. The following applies: proprietary analysis. The format is in vivo, human. Here is the method: We believe our discovery has relevance to the recently reported Phase 3 ATTR-ACT trial that readout positive mortality reduction with pooled tafamidis (20 mg and 80 mg QD) vs placebo. […] This is in line with one of Pfizer's expectations for the Phase 3 protocol (Maurer 2018, Phase 3 Final Protocol, 31 Jul. 2013. PF-06291826 Tafamidis Meglumine. B3461028) when looking at the plot of % TTR stabilization (y-axis) and molar ratio of tafamidis in FIG. 5: TTR levels (μM). We highlighted in red the wide ranges for pharmacodynamic effects related to 80 mg relative to 20 mg (in blue shade) to point out (1) potential for both dose-strengths to nearly overlap, (2) plotted data points were from Phase 1 data in healthy volunteers using liquid formulations of tafamidis (not capsule formulation given in Phase 3 ATTR-ACT trial), and (3) 80 mg PD expectations were calculated as a 4× multiple of 20 mg PD data, which could be important given PK variations may have not been optimized and could explain differences seen in Phase 3 ATTR-ACT clinical trial which tested 20 mg and 80 mg doses of tafamidis.

The target of series [3] is TTR (Homo sapiens, UniProt P02766). The series is described as follows: TTR levels in ATTR-CM patients on tafamidis 20 mg QD (Fx1B-201), immunoturbidimetric assays. The format is in vivo. As to conditions: wtATTR-CM patients. On the procedure: (§1) We believe these levels were measured using immunoturbidimetric assays performed by Genzyme Analytic Services.
Series [4] concerns the target TTR (Homo sapiens, UniProt P02766, V142I). The series is described as above. The format is in vivo. The following applies: V1221 mATTR-CM patients. On the procedure: as §1
The conditions of series [5]: oral tafamidis (presumably 20 mg QD) long-term; cited from earlier work.
The test system of a further series is HMW TTR. The following applies: V30M ATTR patients; cited from earlier work.
The next series relates to ATTR-CM patients. As to conditions: cited from earlier work.
For series [6], the system named is ATTR patients with mutated TTR (V30M). The following applies: cited from earlier work.
The nature of series [7]: Tafamidis exposure in vitreous fluid / across blood-brain barrier after oral dosing. The class given is in vivo, human. The following applies: long-term. An excerpt: Multiple publications have reported reduced serum TTR levels, as measured by nephelometry or radial immunodiffusion (commercial kits readily available), in familial amyloid polyneuropathy patients with vitreous amyloidosis. “Prealbumin. A major constituent of vitreous amyloid,” Ophthalmology. 1987 July; 94(7):792-8. […] “Transthyretin deposition in the eye in the era of effective therapy for hereditary ATTRV30M amyloidosis,” https://doi.org/10.1080/13506129.2018.1554563.

A further series concerns native TTR. The following applies: Taf Group; no Taf Group 273.8 nM, non-ATTR controls 271.5 nM; not significantly different; cited from earlier work.

For the compound `O=C(O)c1cc(-c2ccc(F)cc2F)ccc1O` [diflunisal], in the series on wtATTR-CM patients, the “one-year survival-rates vs untreated” value is given as “improved one-year survival-rates”. On TTR tetramer, the “TTR levels after one year” value is 30 mg/dL.
On to `O=C(O)c1cc(-c2ccc(F)cc2F)cc(I)c1O` [iodo-diflunisal], for which, in [1], the “TTR-assisted beta-amyloid (Aβ) transport” value was “enhanced”.
Take `O=C(O)c1ccc2nc(-c3cc(Cl)cc(Cl)c3)oc2c1` [tafamidis]: the “differences in TTR levels between the two dose-strengths” value in the series with TTR [2] is ~1 mg/dL. The results for the “increase of TTR levels from baseline” value at TTR [3] and on TTR [4] were ~17% and 50-60%, respectively. In addition, the “drug levels in the vitreous fluid” value in series [5] is recorded as “detectable drug levels”. The “HMW TTR levels” value in the series on HMW TTR was “increase HMW TTR levels”. In the series on ATTR-CM patients (ATTR-CM patients, 20 mg tafamidis, long-term follow-up), the “lower death-rates at month-30 compared to untreated” value is ~40%. Also, in the series with ATTR-CM patients (ATTR-CM patients, 20 mg tafamidis), the “rate at month-30 (77% vs 45% untreated)” value is reported as 77%. Also, the “reduction in death-rate at month-30 vs placebo” value in the series on ATTR-CM patients (Phase 3 ATTR-ACT, pooled 20 mg QD and 80 mg QD, mATTR and wtATTR-CM) was ~30%. The ocular abnormalities in series [6] (20 mg/day, liver transplant 34%, supportive therapy 26%) is recorded as 22%. The “ocular abnormalities compared to untreated or liver transplantation” value in series [6] (ATTR-PN, long-term treatment (>5 years), p=0.09 vs untreated, p=0.007 vs liver transplantation) is given as “lower ocular abnormalities”. The blood-brain barrier crossing entry in series [7] was “can cross the blood-brain barrier”. Moreover, the “Average [native TTR] in the CSF” value with native TTR was 265.8 nM.
